# Biological target: (recombinant) catalytic domain of human Bub1 (amino acids 704-1085) (Homo sapiens (Human), UniProt O43683)
# Experiment: Bub1 kinase assay (TR-FRET)
# Format: biochemical
# Conditions: ATP 10 μM, peptide substrate 1 μM, 60 min at 22° C., read-out: Inhibition of Bub1 kinase IC50
# From the text: Bub1-inhibitory activities of compounds described in the present invention were quantified using a time-resolved fluorescence energy transfer (TR-FRET) kinase assay which measures phosphorylation of the synthetic peptide Biotin-Ahx-VLLPKKSFAEPG (SEQ ID No. 1) (C-terminus in amide form), purchased from e.g. Biosyntan (Berlin, Germany) by the (recombinant) catalytic domain of human Bub1 (amino acids 704-1085), expressed in Hi5 insect cells with an N-terminal His6-tag and purified by affinity-(Ni-NTA) and size exclusion chromatography.
# In a typical assay 11 different concentrations of each compound (0.1 nM, 0.33 nM, 1.1 nM, 3.8 nM, 13 nM, 44 nM, 0.15 μM, 0.51 μM, 1.7 μM, 5.9 μM and 20 μM) were tested in duplicate within the same microtiter plate. To this end, 100-fold concentrated compound solutions (in DMSO) were previously prepared by serial dilution (1:3.4) of 2 mM stocks in a clear low volume 384-well source microtiter plate (Greiner Bio-One, Frickenhausen, Germany), from which 50 nl of compounds were transferred into a black low volume test microtiter plate from the same supplier. Subsequently, 2 μL of Bub1 (the final concentration of Bub1 was adjusted depending on the activity of the enzyme lot in order to be within the linear dynamic range of the assay: typically ˜200 ng/mL were used) in aqueous assay buffer [50 mM Tris/HCl pH 7.5, 10 mM magnesium chloride (MgCl2), 200 mM potassium chloride (KCl), 1.0 mM dithiothreitol (DTT), 0.1 mM sodium ortho-vanadate, 1% (v/v) glycerol, 0.01% (w/v) bovine serum albumine (BSA), 0.005% (v/v) Trition X-100 (Sigma), 1× Complete EDTA-free protease inhibitor mixture (Roche)] were added to the compounds in the test plate and the mixture was incubated for 15 min at 22° C. to allow pre-equilibration of the putative enzyme-inhibitor complexes before the start of the kinase reaction, which was initiated by the addition of 3 μL 1.67-fold concentrated solution (in assay buffer) of adenosine-tri-phosphate (ATP, 10 μM final concentration) and peptide substrate (1 μM final concentration). The resulting mixture (5 μL final volume) was incubated at 22° C. during 60 min. and the reaction w as stopped by the addition of 5 μL of an aqueous EDTA-solution (50 mM EDTA, in 100 mM HEPES pH 7.5 and 0.2% (w/v) bovine serum albumin) which also contained the TR-FRET detection reagents (0.2 μM streptavidin-XL665 [Cisbio Bioassays, Codolet, France] and 1 nM anti-phosho-Serine antibody [Merck Millipore, cat. #35-002] and 0.4 nM LANCE EU-W1024 labeled anti-mouse IgG antibody [Perkin-Elmer, product no. AD0077, alternatively a Terbium-cryptate-labeled anti-mouse IgG antibody from Cisbio Bioassays can be used]). The stopped reaction mixture was further incubated 1 h at 22° C. in order to allow the formation of complexes between peptides and detection reagents. Subsequently, the amount of product was evaluated by measurement of the resonance energy transfer from the Eu-chelate-antibody complex recognizing the Phosphoserine residue to the streptavidin-XL665 bound to the biotin moiety of the peptide. To this end, the fluorescence emissions at 620 nm and 665 nm after excitation at 330-350 nm were measured in a TR-FRET plate reader, e.g. a Rubystar or Pherastar (both from BMG Labtechnologies, Offenburg, Germany) or a Viewlux (Perkin-Elmer) and the ratio of the emissions (665 nm/622 nm) was taken as indicator for the amount of phosphorylated substrate. The data were normalised using two sets of control wells for high−(=enzyme reaction without inhibitor=0%=Minimum inhibition) and low−(=all assay components without enzyme=100%=Maximum inhibition) Bub1 activity. IC50 values were calculated by fitting the normalized inhibition data to a 4-parameter logistic equation (Minimum, Maximum, IC50, Hill; Y=Max+(Min−Max)/(1+(X/IC50)Hill)).
# Sequence of (recombinant) catalytic domain of human Bub1 (amino acids 704-1085) (O43683 704-1085): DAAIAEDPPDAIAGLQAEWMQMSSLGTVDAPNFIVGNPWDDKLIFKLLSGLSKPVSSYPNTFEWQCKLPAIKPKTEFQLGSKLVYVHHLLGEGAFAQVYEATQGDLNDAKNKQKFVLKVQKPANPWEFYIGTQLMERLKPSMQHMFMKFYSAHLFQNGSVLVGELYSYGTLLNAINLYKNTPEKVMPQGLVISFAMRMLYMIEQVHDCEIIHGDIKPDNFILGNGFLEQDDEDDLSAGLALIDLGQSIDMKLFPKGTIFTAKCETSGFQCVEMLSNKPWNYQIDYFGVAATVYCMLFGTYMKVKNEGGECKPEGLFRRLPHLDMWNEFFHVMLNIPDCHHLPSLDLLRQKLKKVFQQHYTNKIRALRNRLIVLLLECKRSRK
row,Molecule,IC50
1,"1-Fluoro-N-4-[[(4aR,5aR) or (4aS,5aS)]-5a-methyl-4-oxo-3-(phenylamino)-1,4,4a,5,5a,6-hexahydrocyclopropa[f]indol-2-yl]pyridin-2-ylcyclopropanecarboxamide [Example 31]",52 nM
2,"1-Fluoro-N-4-[[(4aS,5aS) or (4aR,5aR)]-5a-methyl-4-oxo-3-(phenylamino)-1,4,4a,5,5a,6-hexahydrocyclopropa[f]indol-2-yl]pyridin-2-ylcyclopropanecarboxamide [Example 30]",17 nM
3,"1-Methyl-N-4-[[(4aR,5aR) or (4aS,5aS)]-5a-methyl-4-oxo-3-(phenylamino)-1,4,4a,5,5a,6-hexahydrocyclopropa[f]indol-2-yl]pyridin-2-yl-1H-pyrazole-5-carboxamide [Example 43]",22 nM
4,"1-Methyl-N-4-[[(4aS,5aS) or (4aR,5aR)]-5a-methyl-4-oxo-3-(phenylamino)-1,4,4a,5,5a,6-hexahydrocyclopropa[f]indol-2-yl]pyridin-2-yl-1H-pyrazole-5-carboxamide [Example 42]",11 nM
5,"2-Fluoro-2-methyl-N-4-[[(4aR,5aR) or (4aS,5aS)]-5a-methyl-4-oxo-3-(phenylamino)-1,4,4a,5,5a,6-hexahydrocyclopropa[f]indol-2-yl]pyridin-2-ylpropanamide [Example 41]",53 nM
6,"2-Fluoro-2-methyl-N-4-[[(4aS,5aS) or (4aR,5aR)]-5a-methyl-4-oxo-3-(phenylamino)-1,4,4a,5,5a,6-hexahydrocyclopropa[f]indol-2-yl]pyridin-2-ylpropanamide [Example 40]",22 nM
7,"CC1CCC(=O)c2c([nH]c(-c3ccnc(N)c3)c2Nc2ccccc2)C1 (racemic) [Example 24, (7RS)-2-(2-Aminopyridin-4-yl)-7-methyl-3-(phenylamino)-5,6,7,8-tetrahydrocyclohepta[b]pyrrol-4(1H)-one]",25 nM
8,"CC(=O)Nc1cc(-c2[nH]c3c(c2Nc2ccccc2)C(=O)CCC(C)C3)ccn1 (racemic) [Example 25, N-{4-[(7RS)-3-Anilino-7-methyl-4-oxo-1,4,5,6,7,8-hexahydrocyclohepta[b]pyrrol-2-yl]pyridin-2-yl}acetamide]",7 nM
9,"CC1(C)[C@@H]2C[C@H]1C(=O)c1c2[nH]c(-c2ccncc2)c1Nc1ccccc1 (relative stereo) [Example 1, rel-(5R,7S)-6,6-Dimethyl-3-(phenylamino)-2-(pyridin-4-yl)-1,5,6,7-tetrahydro-4H-5,7-methanoindol-4-one]",146 nM
10,"CC1(C)[C@@H]2C[C@H]1C(=O)c1c2[nH]c(-c2ccnc(N)c2)c1Nc1ccccc1 (relative stereo) [Example 2, rel-(5R,7S)-2-(2-Aminopyridin-4-yl)-6,6-dimethyl-3-(phenylamino)-1,5,6,7-tetrahydro-4H-5,7-methanoindol-4-one]",1160 nM
11,"CC(=O)Nc1cc(-c2[nH]c3c(c2Nc2ccccc2)C(=O)[C@@H]2C[C@H]3C2(C)C)ccn1 (relative stereo) [Example 5, N-4-[rel-(5R,7S)-6,6-Dimethyl-4-oxo-3-(phenylamino)-4,5,6,7-tetrahydro-1H-5,7-methanoindol-2-yl]pyridin-2-ylacetamide]",115 nM
12,"CC1(C)[C@@H]2C[C@H]1C(=O)c1c2[nH]c(-c2ccnc(NC(=O)C3CC3)c2)c1Nc1ccccc1 (relative stereo) [Example 6, N-4-[rel-(5R,7S)-6,6-Dimethyl-4-oxo-3-(phenylamino)-4,5,6,7-tetrahydro-1H-5,7-methanoindol-2-yl]pyridin-2-ylcyclopropanecarboxamide]",63 nM
13,"COC(=O)Nc1cc(-c2[nH]c3c(c2Nc2ccccc2)C(=O)[C@@H]2C[C@H]3C2(C)C)ccn1 (relative stereo) [Example 7, methyl 4-[rel-(5R,7S)-6,6-Dimethyl-4-oxo-3-(phenylamino)-4,5,6,7-tetrahydro-1H-5,7-methanoindol-2-yl]pyridin-2-ylcarbamate]",68 nM
14,"CCNC(=O)Nc1cc(-c2[nH]c3c(c2Nc2ccccc2)C(=O)[C@@H]2C[C@H]3C2(C)C)ccn1 (relative stereo) [Example 8, 1-4-[rel-(5R,7S)-6,6-Dimethyl-4-oxo-3-(phenylamino)-4,5,6,7-tetrahydro-1H-5,7-methanoindol-2-yl]pyridin-2-yl-3-ethylurea]",375 nM
15,"CC1(C)[C@@H]2C[C@H]1C(=O)c1c2[nH]c(-c2ccnc(NC(=O)NC3CC3)c2)c1Nc1ccccc1 (relative stereo) [Example 9, 1-cyclopropyl-3-4-[rel-(5R,7S)-6,6-Dimethyl-4-oxo-3-(phenylamino)-4,5,6,7-tetrahydro-1H-5,7-methanoindol-2-yl]pyridin-2-ylurea]",240 nM
16,"CC1(C)[C@@H]2C[C@H]1C(=O)c1c2[nH]c(-c2ccncc2F)c1Nc1ccccc1 (relative stereo) [Example 10, rel-(5R,7S)-2-(3-Fluoropyridin-4-yl)-6,6-dimethyl-3-(phenylamino)-1,5,6,7-tetrahydro-4H-5,7-methanoindol-4-one]",35 nM
17,"CN1C[C@H]2C(=O)c3c([nH]c(-c4ccncc4)c3Nc3ccccc3)C[C@H]2C1=O (relative stereo) [Example 11, rel-(4aR,7aS)-6-Methyl-3-(phenylamino)-2-(pyridin-4-yl)-1,4a,5,6,7a,8-hexahydropyrrolo[3,4-f]indole-4,7-dione]",19 nM
18,"O=C1c2c([nH]c(-c3ccncc3)c2Nc2ccccc2)C[C@H]2C[C@@H]12 (relative stereo) [Example 12, rel-(4aR,5aR)-3-(Phenylamino)-2-(pyridin-4-yl)-4a,5,5a,6-tetrahydrocyclopropa[f]indol-4(1H)-one]",7 nM
19,"CC(=O)Nc1cc(-c2[nH]c3c(c2Nc2ccccc2)C(=O)[C@@H]2C[C@@H]2C3)ccn1 (relative stereo) [Example 15, rel-(4aR,5aR)-N-4-[4-oxo-3-(Phenylamino)-1,4,4a,5,5a,6-hexahydrocyclopropa[f]indol-2-yl]pyridin-2-ylacetamide]",6 nM
20,"C[C@@]12Cc3[nH]c(-c4ccncc4)c(Nc4ccccc4)c3C(=O)[C@@H]1C2 (relative stereo) [Example 16, rel-(4aR,5aR)-5a-Methyl-3-(phenylamino)-2-(pyridin-4-yl)-4a,5,5a,6-tetrahydrocyclopropa[f]indol-4(1H)-one]",6 nM
21,"C[C@@]12Cc3[nH]c(-c4ccnc(NS(C)(=O)=O)c4)c(Nc4ccccc4)c3C(=O)[C@@H]1C2 (relative stereo) [Example 27, N-{4-[rel-(4aR,5aR)-3-Anilino-5a-methyl-4-oxo-1,4,4a,5,5a,6-hexahydrocyclopropa[f]indol-2-yl]pyridin-2-yl}methanesulfonamide]",630 nM
22,"C[C@@]12C[C@@H]1C(=O)c1c([nH]c(-c3ccnc(NC(=O)C4(F)CC4)c3)c1Nc1ccccc1)C2=O (relative stereo) [Example 29, 1-Fluoro-N-4-[rel-(4aS,5aR)-5a-methyl-4,6-dioxo-3-(phenylamino)-1,4,4a,5,5a,6-hexahydrocyclopropa[f]indol-2-yl]pyridin-2-ylcyclopropanecarboxamide]",133 nM
23,"C[C@@]12C[C@@H]1C(=O)c1c([nH]c(-c3ccnc(NC(=O)C4CC4)c3)c1Nc1ccccc1)C2=O (relative stereo) [Example 32, N-4-[rel-(4aS,5aR)-5a-Methyl-4,6-dioxo-3-(phenylamino)-1,4,4a,5,5a,6-hexahydrocyclopropa[f]indol-2-yl]pyridin-2-ylcyclopropanecarboxamide]",30 nM

# Reference: patent publication US10308629B2, “1H-pyrrol-3-amines” (BAYER PHARMA AKTIENGESELLSCHAFT, priority 2015, dated 2019)
